In the supplement of paper PMC10307832:

Each cell line was assayed with c1ccc2c(CCNc3ccc(Nc4ccncc4)cc3)c[nH]c2c1 [Serdemetan] (assay: relative viability (nuclei count vs DMSO), 5 days (fraction); higher = more cells survive). Settings: 0.04 µM.
How it was run: (§1)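 MetaXpress counted nuclei in 4× images of lung cancer cell lines that had been fixed, permeabilised and Hoechst-stained in one step. Before that, cells in 1536-well plates were kept overnight at 37 °C, pinned with five √10-spaced library-drug doses on vehicle-anchored plates, and cultured 5 days without medium change. Viability takes treated-well nuclei over vehicle-well nuclei and uses the median across plates. Plates were accepted only at control CV below 25% and at least one doubling.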

Cell Line	relative viability
201T	0.983
NCI-H1915	1
HCC-827	1.04
LXF-289	1.02
NCI-H23	0.972
NCI-H1299	1.01
NCI-H647	0.905
CAL-12T	0.967
NCI-H1651	0.847
EPLC-272H	1.17
NCI-H2228	0.974
NCI-H1792	0.934
NCI-H1355	0.99
NCI-H3122	0.995
NCI-H1437	0.905
NCI-H1755	1
NCI-H2023	0.884
HCC-15	1.03
NCI-H1793	1.03
PC-14	0.966
EKVX	0.987
LC-2-ad	1
NCI-H1563	0.866
NCI-H1944	0.95
NCI-H1975	0.934
RERF-LC-KJ	0.99
ABC-1	0.948
NCI-H358	0.897
NCI-H650	0.896
PC-3 [JPC-3]	1.04

Same assay, conditions: 0.1265 µM

Cell Line	relative viability
201T	0.987
NCI-H1915	1.02
HCC-827	0.972
LXF-289	0.996
NCI-H23	1.17
NCI-H1299	1
NCI-H647	0.964
CAL-12T	1.05
NCI-H1651	0.899
EPLC-272H	1.09
NCI-H2228	0.98
NCI-H1792	0.674
NCI-H1355	1.05
NCI-H3122	0.984
NCI-H1437	0.994
NCI-H1755	0.975
NCI-H2023	1.09
HCC-15	0.999
NCI-H1793	0.873
PC-14	0.972
EKVX	0.987
LC-2-ad	0.962
NCI-H1563	0.849
NCI-H1944	0.918
NCI-H1975	0.978
RERF-LC-KJ	0.948
ABC-1	0.923
NCI-H358	0.905
NCI-H650	0.889
PC-3 [JPC-3]	0.961

Same assay, conditions: 0.4 µM

Cell Line	relative viability
201T	0.937
NCI-H1915	0.996
LXF-289	0.933
NCI-H23	1.11
NCI-H1299	0.975
NCI-H647	0.964
CAL-12T	1.01
NCI-H1651	0.832
EPLC-272H	0.897
NCI-H2228	0.945
NCI-H1792	0.848
NCI-H1355	0.907
NCI-H3122	0.948
NCI-H1437	0.98
NCI-H1755	0.959
NCI-H2023	0.932
HCC-15	0.94
NCI-H1793	0.562
PC-14	0.689
EKVX	0.647
LC-2-ad	0.911
NCI-H1563	0.8
NCI-H1944	0.858
NCI-H1975	0.919
RERF-LC-KJ	0.93
ABC-1	0.994
NCI-H358	0.901
NCI-H650	0.934
PC-3 [JPC-3]	0.702

Same assay, conditions: 1.265 µM

Cell Line	relative viability
201T	0.919
NCI-H1915	0.819
HCC-827	0.862
LXF-289	0.84
NCI-H23	0.817
NCI-H1299	0.895
NCI-H647	0.819
CAL-12T	0.932
NCI-H1651	0.507
EPLC-272H	0.833
NCI-H2228	0.342
NCI-H1792	0.593
NCI-H1355	0.936
NCI-H3122	0.758
NCI-H1437	0.928
NCI-H1755	0.775
NCI-H2023	0.424
HCC-15	0.807
NCI-H1793	0.471
PC-14	0.907
EKVX	0.627
LC-2-ad	0.962
NCI-H1563	0.622
NCI-H1944	0.469
NCI-H1975	0.937
RERF-LC-KJ	0.942
ABC-1	0.603
NCI-H358	0.81
NCI-H650	0.878
PC-3 [JPC-3]	0.98

Same assay, conditions: 4 µM

Cell Line	relative viability
201T	0.919
NCI-H1915	0.948
HCC-827	0.83
LXF-289	0.885
NCI-H23	1.04
NCI-H1299	0.754
NCI-H647	0.655
CAL-12T	0.927
NCI-H1651	0.399
EPLC-272H	0.912
NCI-H2228	0.336
NCI-H1792	0.62
NCI-H1355	0.918
NCI-H3122	1.02
NCI-H1437	0.799
NCI-H1755	0.763
NCI-H2023	0.345
HCC-15	0.712
NCI-H1793	0.572
PC-14	0.728
EKVX	0.891
LC-2-ad	0.872
NCI-H1563	0.744
NCI-H1944	0.738
NCI-H1975	0.993
RERF-LC-KJ	0.939
ABC-1	0.56
NCI-H358	0.798
NCI-H650	0.764
PC-3 [JPC-3]	1.06

Each cell line was assayed with C1CC(C2=C(C1)C3=C(N2)C=CC(=C3)Cl)C(=O)N [Selisistat] in the same assay as above. Settings: 0.4 µM.
How it was run: as §1

Cell Line	relative viability
201T	1.02
NCI-H1915	0.992
HCC-827	1.02
LXF-289	1.05
NCI-H23	0.989
NCI-H1299	1.05
NCI-H647	0.958
CAL-12T	0.964
NCI-H1651	0.995
EPLC-272H	0.966
NCI-H2228	0.9
NCI-H1792	0.927
NCI-H1355	1.02
NCI-H3122	1.03
NCI-H1437	0.945
NCI-H1755	1.08
NCI-H2023	0.952
HCC-15	1.08
NCI-H1793	0.968
PC-14	1.02
EKVX	1.05
LC-2-ad	1.05
NCI-H1563	0.972
NCI-H1944	1.11
NCI-H1975	0.952
RERF-LC-KJ	1.06
ABC-1	0.897
NCI-H358	0.989
NCI-H650	0.948
PC-3 [JPC-3]	1.14

Same assay, conditions: 1.265 µM

Cell Line	relative viability
201T	0.996
NCI-H1915	1.03
HCC-827	1.04
LXF-289	1.03
NCI-H23	0.941
NCI-H1299	1.03
NCI-H647	0.964
CAL-12T	0.987
NCI-H1651	0.958
EPLC-272H	1.03
NCI-H2228	1.12
NCI-H1792	1.18
NCI-H1355	0.987
NCI-H3122	1.07
NCI-H1437	0.974
NCI-H1755	1.1
NCI-H2023	0.966
HCC-15	1.04
NCI-H1793	0.846
PC-14	0.957
EKVX	0.993
LC-2-ad	0.762
NCI-H1563	0.886
NCI-H1944	0.92
NCI-H1975	0.839
RERF-LC-KJ	0.969
ABC-1	0.869
NCI-H358	0.925
NCI-H650	0.868
PC-3 [JPC-3]	1.04

Same assay, conditions: 4 µM

Cell Line	relative viability
201T	0.875
NCI-H1915	0.795
HCC-827	0.952
LXF-289	0.867
NCI-H1299	1.04
NCI-H647	0.826
CAL-12T	0.747
NCI-H1651	0.893
NCI-H2228	0.966
NCI-H1355	0.832
NCI-H3122	0.782
NCI-H1437	0.805
NCI-H1755	0.977
NCI-H2023	0.828
PC-14	0.891
EKVX	0.788
LC-2-ad	0.794
NCI-H1563	0.906
NCI-H1975	0.763
RERF-LC-KJ	0.927
ABC-1	0.647
NCI-H650	1.08
PC-3 [JPC-3]	0.85

Same assay, conditions: 12.65 µM

Cell Line	relative viability
201T	1.01
NCI-H1915	0.963
HCC-827	0.975
LXF-289	0.949
NCI-H23	0.906
NCI-H1299	1.02
NCI-H647	0.959
CAL-12T	0.881
NCI-H1651	0.924
EPLC-272H	0.931
NCI-H2228	1.05
NCI-H1792	0.862
NCI-H1355	0.97
NCI-H3122	1.03
NCI-H1437	0.933
NCI-H1755	1.01
NCI-H2023	0.876
HCC-15	1.02
NCI-H1793	0.956
PC-14	0.954
EKVX	0.902
LC-2-ad	0.926
NCI-H1563	0.865
NCI-H1944	0.858
NCI-H1975	0.825
RERF-LC-KJ	0.836
ABC-1	0.772
NCI-H358	1.06
NCI-H650	0.886
PC-3 [JPC-3]	1.07

Same assay, conditions: 40 µM

Cell Line	relative viability
201T	0.996
NCI-H1915	1
HCC-827	1
LXF-289	1.07
NCI-H23	1.08
NCI-H1299	1.01
NCI-H647	1.03
CAL-12T	1
NCI-H1651	0.949
EPLC-272H	1.04
NCI-H2228	1.11
NCI-H1792	0.855
NCI-H1355	1.03
NCI-H3122	1.02
NCI-H1437	0.855
NCI-H1755	1.08
NCI-H2023	0.934
HCC-15	1.21
NCI-H1793	0.942
PC-14	1.09
EKVX	0.92
LC-2-ad	1.01
NCI-H1563	0.902
NCI-H1944	0.975
